Patent US11248024B2, “Noxa-derived, cell death-inducing peptide eMTD” (INDUSTRY-ACADEMIC COOPERATION FOUNDATION, CHOSUN UNIVERSITY, priority 2019, dated 2022)
Ends that are not written are not given here.

Columns and labels:
HeLa cells [1] = assay: Intracellular calcium level, Fluo-4, confocal microscope; assay type: cell-based, human; details: Fluo-4, 20 μM (FIG. 4)
Description: In order to examine the mechanism in which the peptide eMTD (SEQ ID NO: 1) induces cell death in cancer cell lines, a change in intracellular calcium level, which is known as an important factor for cell death, was observed using the calcium indicator Fluo-4 under a confocal microscope (Leica).
In brief, HeLa cells were grown to about 70% confluency in a Lab-Tek chamber glass a day before the experiment. Immediately before the experiment, of the calcium indicator Fluo-4 was diluted to a concentration of 5 in HBSS. HeLa cells were incubated with the dilution for 10 min in an incubator and then treated with the peptide eMTDΔ4 (SEQ ID NO: 2).

HeLa [2] = assay: MTS assay, relative cell viability, HeLa; assay type: cell-based, human
Description: (§1) Individual cell lines (HeLa, CT26, and B16F10) were purchased from the Korean Cell Line Bank. Dulbecco's modified Eagle's medium (DMEM), trypsin-EDTA, fetal bovine serum (FBS), and Hank's balanced salt solution (HBSS) were products from Gibco (Thermo Fisher).
(§2) Each of the cell lines was cultured in DMEM supplemented with 10% FBS in an incubator maintained at 37° C. and 5% 002.
For use in assaying the peptides eMTD (SEQ ID NO: 1) and eMTDΔ4 (SEQ ID NO: 2) synthesized in Example 1 for activity of inducing cell death, the cell line HeLa was grown to about 90% confluency in 96-well plates. The cells were washed once with HBSS buffer before treatment with the peptides of the present disclosure eMTD (SEQ ID NO: 1) and eMTDΔ4 (SEQ ID NO: 2) at concentrations of 0, 20, and 40 for one hour. Thereafter, the cells were incubated with an MTS assay agent (Promega) for one hour, followed by reading absorbance to calculate relative viability of cells.
(§3) Examination was made to see whether the peptide has the activity of inducing cell death in other cancer cell lines. In this regard, the cancer cell lines HeLa, CT26, and B16F10 were treated with eMTDΔ4 (SEQ ID NO: 2) at concentrations of 0, 20, and 40 μM.

[3] = Two-step assay, damage on lipid membrane of liposomes (TbCl3/DPA fluorescence); assay type: biochemical; details: for Relative Fluorescence Intensity: liposomes, excitation 276 nm, read at 490 nm
Description: In brief, DOPS, DOPE, and DOPC (Avanti Polar Lipids) were dissolved at the ratio of 2:4:3 in chloroform, followed by vaporization. The residue was again dissolved at the concentration of 2 mg/mL in TbCl3 buffer (15 mM TbCl3, 50 mM sodium citrate, 20 mM HEPES, 150 mM NaCl, pH 7.4). The lipid mixture was extruded by Mini extruder (Avanti Polar Lipids) with a 400 nm to prepare liposomes which were washed with washing buffer (150 mM NaCl, 20 mM HEPES, pH 7.4) and then resuspended in an assay buffer (50 DPA, […], 20 mM HEPES, pH 7.4). The suspension was plated into 96-well plates and treated with 0, 10, or 25 μM of eMTD (SEQ ID NO: 1) or eMTDΔ4 (SEQ ID NO: 2). After stimulation with 276 nm laser, fluorescence was read at 490 nm.

CT26 = assay: MTS assay, relative cell viability, CT26; assay type: cell-based, murine
Description: as §1, §2
Examination was made to see whether the peptide has the activity of inducing cell death in other cancer cell lines. […]

HeLa cells [4] = assay: Mitochondrial ROS generation, MitoSox, confocal; assay type: cell-based, human; details: MitoSox 5 μM, 10 min, 20 μM peptide (FIG. 8)
Description: In brief, HeLa cells were grown to 70% confluency on a Lab-Tek chamber glass slide one day before the experiment. The cells were stained for 10 min with 5 μM of the mitochondrial ROS indicator MitoSox (Invitrogen) in order to visualize ROS generation. Then, the cells were incubated with eMTDΔ4 (SEQ ID NO: 2) for 10 min during which confocal micrographic images were taken to monitor cell morphologies and ROS generation.

[5] = tested on: mitochondria isolated from livers of BalB/C mice; assay: Mitochondrial swelling, absorbance at 540 nm / TEM; assay type: biochemical; details: for Mitochondrial swelling, relative absorbance at 540 nm: peptides 25 μM, Ca2+ 200 μM, CsA 20 μM
Description: First, livers excised from 6-week-old BalB/C mice were immersed in buffer (250 mM mannitol, […], 5 mM HEPES, pH 7.4, 0.1 mM PMSF and 4 rotenone) and completely homogenized using a Teflon Potter-Elvehjem grinder (Sigma). The ground liver was centrifuged at 1000×g for 10 min at 4° C. and the supernatants were centrifuged at 10,000×g for 10 min at 4° C. The pellets thus obtained were suspended in a regeneration buffer (250 mM sucrose, 10 mM HEPES, pH 7.4, 5 mM sodium succinate, 2 mM potassium phosphate, 0.1 mM PMSF, 25 μM EGTA, and 4 rotenone).
The mitochondria thus obtained were treated with 25 μM of eMTD (SEQ ID NO: 1) or eMTDΔ4 (SEQ ID NO: 2), followed by reading absorbance at 540 nm to determine mitochondrial swelling.

HeLa [6] = assay: MTS assay, relative cell viability, HeLa; assay type: cell-based, human; details: 10 μM, Table 4
HeLa cells [7] = assay: Mitochondrial PTP opening, calcein AM and cobalt ions; assay type: cell-based, human; details: calcein AM 1 μM and cobalt ions 2 mM
Description: Mitochondria are known to open permeability transition pores (PTP) to allow cytosolic calcium influx. The observation that eMTDΔ4 (SEQ ID NO: 2) migrates to mitochondria and induces cytosolic calcium influx led to investigating the association of the action of eMTDΔ4 (SEQ ID NO: 2) with PTP. To this end, PTP opening was monitored using calcein AM and cobalt ions.
In brief, HeLa cells were grown on a Lab-Tek chamber glass slide one day before the experiment. Immediately before the experiment, the cells were stained with 1 μM of calcein AM and 2 mM of cobalt ions for 20 min and then with 0.1 μM of MitoTracker Red for 2 min. When PTP is opened, mitochondrial calcein AM meets cobalt ions so that the fluorescence of calcein AM is quenched.

B16F10 = assay: MTS assay, relative cell viability, B16F10; assay type: cell-based, murine
Description: as §1, §2, §3

Sequence: KLNFRQKLLNLISKLF [eMTDΔ4]
- change in intracellular calcium level (HeLa cells [1]): calcium influx into the cytosols thereof within less than one min
- Viability (%) (HeLa [2]; 20 μM, Table 4): 11%
- Viability (%) (HeLa [2]; 20 μM, one hour treatment, Table 3): 53%
- Viability (%) (HeLa [2]; 40 μM, one hour treatment, Table 3): 40%
- cell death activity (in words) (HeLa [2]; FIG. 1 and Table 3): potent cell death activity
- induction of cell death (in words) (HeLa [2]; FIG. 3 and Table 4): induce cell death
- liposome lipid membrane damage (in words) ([3]; FIGS. 10A to 10C and Table 6): higher fluorescence intensity was detected
- Relative Fluorescence Intensity ([3]; 10 μM): 25%
- Relative Fluorescence Intensity ([3]; 25 μM): 51%
- Viability (%) (CT26; CT26, 10 μM): 69%
- Viability (%) (CT26; CT26, 20 μM): 21%
- induction of cell death (in words) (CT26; CT26, FIG. 3 and Table 4): induce cell death
- mitochondrial ROS level (HeLa cells [4]): abruptly increased in ROS level just after the cell membrane bubbling
- mitochondrial swelling (in words) ([5]; 25 μM, absorbance 540 nm and TEM, FIGS. 6A and 6B): induce mitochondrial swelling
- Mitochondrial swelling, relative absorbance at 540 nm ([5]; Minute 0): 100%
- Mitochondrial swelling, relative absorbance at 540 nm ([5]; Minute 10): 79%
- Mitochondrial swelling, relative absorbance at 540 nm ([5]; Minute 20): 74%
- Mitochondrial swelling, relative absorbance at 540 nm ([5]; Minute 30): 70%
- Mitochondrial swelling, relative absorbance at 540 nm ([5]; Minute 40): 68%
- Mitochondrial swelling, relative absorbance at 540 nm ([5]; Minute 50): 66%
- Mitochondrial swelling, relative absorbance at 540 nm ([5]; Minute 60): 65%
- Viability (%) (HeLa [6]): 47%
- mitochondrial PTP opening (calcein AM fluorescence) (HeLa cells [7]): fluorescence of mitochondrial calcein AM was quenched
- Viability (%) (B16F10; B16F10, 10 μM): 68%
- Viability (%) (B16F10; B16F10, 20 μM): 33%
- induction of cell death (in words) (B16F10; B16F10, FIG. 3 and Table 4): induce cell death
